Measurements from paper PMC9138389, “The Tarantula Toxin ω-Avsp1a Specifically Inhibits Human CaV3.1 and CaV3.3 via the Extracellular S3-S4 Loop of the Domain 1 Voltage-Sensor” (Biomedicines, 2022).
Where a SMILES comes first, the peptide text is derived from it. Bridges are numbered along the chain shown (N, C = ends).

Key:
CaV3.2 = target: T1, CaV3.2 (Homo sapiens, UniProt O95180); assay: Whole-cell voltage-clamp of CaV3.2 expressed in HEK-293 cells; type: cell-based
T1 construct: expressed in transfected cells; host or cells: HEK-293
Protocol: (§1) Human embryonic kidney (HEK) 293 cells were grown in Dulbecco’s modified Eagle’s medium (DMEM) containing 5% fetal bovine serum and penicillin/streptomycin at 37 °C in a 5% CO2 incubator. Cells were transiently transfected with 3 μg plasmid DNA using the calcium-phosphate method. Plasmids of Cav3.1, Cav3.2 or Cav3.3 were separately transfected into three individual plates of HEK-293 cells. After transfection, cells were incubated at 37 °C for 48 h prior to whole-cell voltage-clamp recordings.
(§2) Patch pipettes with a tip resistance of 2.8~3.5 MΩ were pulled from borosilicate glass capillary tubes (Warner Instruments, Holliston, MA, USA) using a P-97 Flaming-Brown type micropipette puller (Sutter Instrument, Novato, CA, USA). Ionic currents were recorded using an Axon Multiclamp 700B microelectrode amplifier (Molecular Devices, San Jose, CA, USA). The sampling frequency for acquisition was 50 kHz and data were low-pass filtered at 2 kHz. Voltage and current commands and digitisation of membrane voltages and currents were controlled using a Digidata 1440A interfaced with Clampex 10.4 (Molecular Devices, San Jose, CA, USA). Data were analysed using pCLAMP10.4 software (Molecular Devices, San Jose, CA, USA).
(§3) To measure CaV3 currents, cells were incubated with the following bath solution (in mM): 145 TEA-Cl, 5 CaCl2, 3 CsCl, 1 MgCl2, 5 glucose, and 10 HEPES, adjusted to pH 7.4 with TEA-OH, osmolarity ~300 mOsm. The pipette solution was as follows (in mM): 130 CsCl, 20 HEPES, 10 EGTA, 5 MgCl2, 3 Mg-ATP, and 0.3 Tris-GTP, adjusted to pH 7.3 with CsOH, osmolarity ~310 mOsm. All recordings were performed at room temperature (21–24 °C). For Cav3.1- or Cav3.2-transfected cells, their membrane potentials were initially held at −90 mV for 20 ms and then depolarized to −30 mV for 150 ms. […] The peak values of Cav3 currents were recorded before and after addition of venom fractions or synthetic peptide. […] The inhibition was calculated by dividing the toxin-reduced peak amplitudes by the peak amplitudes before additions of the toxin.

CaV3.1 = target: T2, CaV3.1 (Homo sapiens, UniProt O43497); assay: Whole-cell voltage-clamp of CaV3.1 expressed in HEK-293 cells; type: cell-based
T2 construct: expressed in transfected cells; host or cells: HEK-293
Protocol: as §1, §2, §3

CaV3.3 = target: T3, CaV3.3 (Homo sapiens, UniProt Q9P0X4); assay: Whole-cell voltage-clamp of CaV3.3 expressed in HEK-293 cells; type: cell-based
T3 construct: expressed in transfected cells; host or cells: HEK-293
Protocol: as §1, §2, §3

[1] = Solubility limit in electrophysiology; type: physicochemical; details: synthetic ω-Avsp1a; working concentration could not be increased above 25 μM
CaV3 = details: cited from earlier work
Source text: (§4) It is well documented that the three CaV3 subtypes participate differentially in a variety of physiological and pathological conditions. Selective pharmacological inhibition is therefore important for dissecting the pathophysiological functions of CaV3 channel subtypes and for the development of therapeutically useful subtype-selective inhibitors.

patients = details: used clinically as anti-epileptic drugs; cited from earlier work
Source text: as §4

[2] = synthetic ω-Avsp1a, 10, 5, 1, and 0.1 μM, Hill equation fit, HEK-293

T3 sequence (Q9P0X4 whole entry): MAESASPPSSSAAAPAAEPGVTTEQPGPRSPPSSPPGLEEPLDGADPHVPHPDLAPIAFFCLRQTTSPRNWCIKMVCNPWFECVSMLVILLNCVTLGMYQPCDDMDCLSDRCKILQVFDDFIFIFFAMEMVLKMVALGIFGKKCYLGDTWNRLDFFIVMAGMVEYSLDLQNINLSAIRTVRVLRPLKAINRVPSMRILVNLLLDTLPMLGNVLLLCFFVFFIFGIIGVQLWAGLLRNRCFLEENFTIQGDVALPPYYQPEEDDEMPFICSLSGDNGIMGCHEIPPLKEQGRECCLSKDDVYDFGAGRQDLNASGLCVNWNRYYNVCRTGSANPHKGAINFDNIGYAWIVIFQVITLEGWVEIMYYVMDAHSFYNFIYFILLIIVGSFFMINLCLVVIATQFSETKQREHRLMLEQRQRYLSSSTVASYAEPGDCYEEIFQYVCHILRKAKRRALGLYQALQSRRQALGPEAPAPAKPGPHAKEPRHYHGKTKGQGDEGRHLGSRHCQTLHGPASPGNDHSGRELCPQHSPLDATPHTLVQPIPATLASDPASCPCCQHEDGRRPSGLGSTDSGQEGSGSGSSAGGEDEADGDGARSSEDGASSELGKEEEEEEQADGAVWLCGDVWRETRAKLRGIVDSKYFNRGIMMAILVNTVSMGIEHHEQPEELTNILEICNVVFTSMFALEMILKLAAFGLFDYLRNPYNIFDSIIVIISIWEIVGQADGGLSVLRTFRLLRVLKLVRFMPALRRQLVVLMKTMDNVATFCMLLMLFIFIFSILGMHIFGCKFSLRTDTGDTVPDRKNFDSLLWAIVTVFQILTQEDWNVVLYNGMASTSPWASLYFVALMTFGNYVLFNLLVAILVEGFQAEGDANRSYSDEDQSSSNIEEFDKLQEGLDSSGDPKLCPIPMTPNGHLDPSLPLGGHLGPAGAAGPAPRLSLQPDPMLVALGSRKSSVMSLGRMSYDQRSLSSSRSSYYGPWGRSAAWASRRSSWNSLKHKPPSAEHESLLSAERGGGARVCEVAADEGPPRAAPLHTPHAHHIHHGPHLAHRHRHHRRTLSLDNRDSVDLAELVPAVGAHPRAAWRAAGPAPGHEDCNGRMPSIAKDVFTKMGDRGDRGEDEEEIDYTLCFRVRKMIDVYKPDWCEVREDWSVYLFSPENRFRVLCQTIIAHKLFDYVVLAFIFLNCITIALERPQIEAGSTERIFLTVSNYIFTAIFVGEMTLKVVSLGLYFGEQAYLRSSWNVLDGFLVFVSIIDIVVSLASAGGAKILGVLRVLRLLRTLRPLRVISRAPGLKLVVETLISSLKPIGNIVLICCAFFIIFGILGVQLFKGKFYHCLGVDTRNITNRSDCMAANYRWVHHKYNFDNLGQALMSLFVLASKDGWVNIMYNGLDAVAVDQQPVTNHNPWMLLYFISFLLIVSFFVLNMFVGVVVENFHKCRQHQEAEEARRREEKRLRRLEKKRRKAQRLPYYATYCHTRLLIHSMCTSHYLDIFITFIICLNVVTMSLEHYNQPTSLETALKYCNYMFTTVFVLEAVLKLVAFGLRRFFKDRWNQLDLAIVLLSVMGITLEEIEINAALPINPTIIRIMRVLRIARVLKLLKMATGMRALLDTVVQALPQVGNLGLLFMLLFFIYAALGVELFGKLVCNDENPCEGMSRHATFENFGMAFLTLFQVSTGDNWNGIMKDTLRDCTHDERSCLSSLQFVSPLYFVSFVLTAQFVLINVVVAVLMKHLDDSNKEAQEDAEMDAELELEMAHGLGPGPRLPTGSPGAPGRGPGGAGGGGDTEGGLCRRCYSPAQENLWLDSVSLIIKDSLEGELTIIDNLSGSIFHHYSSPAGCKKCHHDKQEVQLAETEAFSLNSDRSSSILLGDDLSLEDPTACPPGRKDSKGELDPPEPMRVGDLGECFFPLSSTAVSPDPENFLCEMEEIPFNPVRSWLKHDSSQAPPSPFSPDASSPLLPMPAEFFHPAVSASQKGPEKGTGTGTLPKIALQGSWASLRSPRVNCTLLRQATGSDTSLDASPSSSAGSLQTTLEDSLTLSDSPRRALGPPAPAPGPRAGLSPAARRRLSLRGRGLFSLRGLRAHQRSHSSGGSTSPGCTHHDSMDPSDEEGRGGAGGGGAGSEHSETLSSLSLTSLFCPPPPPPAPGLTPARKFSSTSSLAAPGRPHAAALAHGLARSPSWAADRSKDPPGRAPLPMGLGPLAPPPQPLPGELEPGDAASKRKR
T2 sequence (O43497 whole entry): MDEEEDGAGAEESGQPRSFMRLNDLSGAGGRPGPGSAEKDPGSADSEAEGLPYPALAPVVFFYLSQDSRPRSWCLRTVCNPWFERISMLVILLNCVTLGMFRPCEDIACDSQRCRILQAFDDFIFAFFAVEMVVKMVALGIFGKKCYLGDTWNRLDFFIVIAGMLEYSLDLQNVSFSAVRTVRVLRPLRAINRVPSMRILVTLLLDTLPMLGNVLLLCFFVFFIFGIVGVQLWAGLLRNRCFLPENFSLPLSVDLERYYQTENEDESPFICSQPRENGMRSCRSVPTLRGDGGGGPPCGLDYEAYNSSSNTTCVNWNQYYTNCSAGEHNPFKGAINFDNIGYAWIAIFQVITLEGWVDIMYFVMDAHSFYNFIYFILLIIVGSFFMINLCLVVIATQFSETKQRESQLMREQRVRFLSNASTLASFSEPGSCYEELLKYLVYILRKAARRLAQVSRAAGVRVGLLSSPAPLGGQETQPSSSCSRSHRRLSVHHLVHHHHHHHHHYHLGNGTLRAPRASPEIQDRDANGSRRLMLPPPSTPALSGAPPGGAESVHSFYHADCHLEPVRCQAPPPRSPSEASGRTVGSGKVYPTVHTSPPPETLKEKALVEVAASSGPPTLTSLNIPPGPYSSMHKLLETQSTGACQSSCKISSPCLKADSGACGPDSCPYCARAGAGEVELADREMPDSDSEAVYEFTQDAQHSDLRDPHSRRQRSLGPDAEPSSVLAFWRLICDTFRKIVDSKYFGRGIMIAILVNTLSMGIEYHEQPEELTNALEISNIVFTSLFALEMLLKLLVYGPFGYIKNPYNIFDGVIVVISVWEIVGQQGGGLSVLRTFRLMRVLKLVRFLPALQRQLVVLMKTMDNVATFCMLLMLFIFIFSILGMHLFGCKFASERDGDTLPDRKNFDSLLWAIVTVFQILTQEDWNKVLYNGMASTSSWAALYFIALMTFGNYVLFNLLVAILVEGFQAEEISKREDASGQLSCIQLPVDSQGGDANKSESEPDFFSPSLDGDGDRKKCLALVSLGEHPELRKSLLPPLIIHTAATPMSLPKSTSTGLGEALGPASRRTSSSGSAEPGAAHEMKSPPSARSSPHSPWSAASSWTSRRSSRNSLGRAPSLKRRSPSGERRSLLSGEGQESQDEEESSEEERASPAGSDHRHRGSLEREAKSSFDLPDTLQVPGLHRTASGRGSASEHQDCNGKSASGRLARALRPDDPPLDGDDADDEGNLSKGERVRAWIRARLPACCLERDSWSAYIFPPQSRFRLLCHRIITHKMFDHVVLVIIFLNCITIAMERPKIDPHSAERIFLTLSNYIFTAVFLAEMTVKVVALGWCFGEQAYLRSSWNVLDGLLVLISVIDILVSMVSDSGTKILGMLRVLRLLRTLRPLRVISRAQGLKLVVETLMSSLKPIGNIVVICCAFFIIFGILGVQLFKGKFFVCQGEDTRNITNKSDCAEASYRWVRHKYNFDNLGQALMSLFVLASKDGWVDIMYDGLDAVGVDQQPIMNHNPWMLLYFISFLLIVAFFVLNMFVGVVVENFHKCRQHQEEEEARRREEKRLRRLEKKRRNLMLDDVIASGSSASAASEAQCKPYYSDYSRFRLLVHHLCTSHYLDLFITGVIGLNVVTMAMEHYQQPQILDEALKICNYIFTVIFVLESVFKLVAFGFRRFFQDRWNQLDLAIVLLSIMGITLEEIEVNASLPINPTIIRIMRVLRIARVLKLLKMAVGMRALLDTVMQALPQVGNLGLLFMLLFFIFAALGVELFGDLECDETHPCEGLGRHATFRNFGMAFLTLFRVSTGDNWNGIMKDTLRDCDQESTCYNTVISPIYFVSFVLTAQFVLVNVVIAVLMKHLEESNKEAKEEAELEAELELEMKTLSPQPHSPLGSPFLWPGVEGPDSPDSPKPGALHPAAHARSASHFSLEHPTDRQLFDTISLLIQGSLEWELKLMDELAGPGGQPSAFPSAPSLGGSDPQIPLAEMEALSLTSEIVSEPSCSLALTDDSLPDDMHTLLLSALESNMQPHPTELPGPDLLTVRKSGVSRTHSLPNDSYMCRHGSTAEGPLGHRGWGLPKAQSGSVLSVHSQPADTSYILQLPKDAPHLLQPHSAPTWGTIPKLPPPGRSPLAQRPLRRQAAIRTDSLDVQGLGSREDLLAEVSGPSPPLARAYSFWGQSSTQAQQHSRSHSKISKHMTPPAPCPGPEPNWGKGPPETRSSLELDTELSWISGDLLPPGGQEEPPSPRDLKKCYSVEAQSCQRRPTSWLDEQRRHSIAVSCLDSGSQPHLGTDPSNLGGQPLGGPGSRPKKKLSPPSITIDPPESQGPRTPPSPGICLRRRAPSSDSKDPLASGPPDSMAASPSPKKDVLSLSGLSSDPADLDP

| Structure (SMILES) | IC50 (CaV3.2) [µM] | inhibition at 4.1 µM (CaV3.2; HEK293, pH 7.4, native ω-Avsp1a, 4.1 μM, HEK-293, whole-cell, -90 to -30 mV, room temperature (21–24 °C), pH 7.4, 5 mM CaCl2, n = 5, p < 0.001 vs. Cav3.1 and Cav3.3, read-out: current inhibition) [%] | inhibition at 25 µM (CaV3.2; HEK293, synthetic ω-Avsp1a, 25 μM (section 3.6), read-out: current inhibition) [%] | inhibition at 4.1 µM (CaV3.1; HEK293, pH 7.4, native ω-Avsp1a, 4.1 μM, HEK-293, whole-cell, -90 to -30 mV, room temperature (21–24 °C), pH 7.4, 5 mM CaCl2, n = 5, read-out: current inhibition) [%] | inhibition at 10 µM (CaV3.1; HEK293, synthetic ω-Avsp1a, 10 μM, HEK-293, whole-cell, -90 to -30 mV, n = 9, read-out: current inhibition) [%] | IC50 (CaV3.1; [2]) [µM] | inhibition at 4.1 µM (CaV3.3; HEK293, pH 7.4, native ω-Avsp1a, 4.1 μM, HEK-293, whole-cell, -90 to -20 mV, room temperature (21–24 °C), pH 7.4, 5 mM CaCl2, n = 3, read-out: current inhibition) [%] | inhibition at 10 µM (CaV3.3; HEK293, synthetic ω-Avsp1a, 10 μM, HEK-293, whole-cell, -90 to -20 mV, n = 9, read-out: current inhibition) [%] | IC50 (CaV3.3; [2]) [µM] | solubility [1] | CaV3 subtype specificity (CaV3) | clinical effectiveness as anti-epileptic (patients) |
| --- | --- | --- | --- | --- | --- | --- | --- | --- | --- | --- | --- | --- |
| CC(C)C[C@@H]1NC(=O)[C@H](Cc2ccccc2)NC(=O)[C@H](CCCCN)NC(=O)[C@H](Cc2c[nH]cn2)NC(=O)[C@@H](NC(=O)[C@H](CC(=O)O)NC(=O)CN)CSSC[C@@H]2NC(=O)[C@@H]3CSSC[C@@H](C(=O)N[C@H](C(=O)N[C@@H](Cc4c[nH]c5ccccc45)C(=O)N[C@@H](CC(=O)O)C(=O)N[C@@H](Cc4c[nH]c5ccccc45)C(=O)N[C@H](C(=O)N[C@H](C(N)=O)C(C)C)[C@@H](C)O)C(C)C)NC(=O)[C@H](Cc4c[nH]c5ccccc45)NC(=O)CNC(=O)[C@H](Cc4c[nH]cn4)NC(=O)[C@H](CCCCN)NC(=O)[C@H](CCCNC(=N)N)NC(=O)[C@H](CO)NC(=O)[C@H](CSSC[C@H](NC(=O)[C@H](Cc4c[nH]c5ccccc45)NC(=O)CNC1=O)C(=O)N[C@@H](CCCNC(=N)N)C(=O)NCC(=O)N[C@@H](CCC(=O)O)C(=O)N1CCC[C@H]1C(=O)N[C@@H](CC(=O)O)C(=O)N1CCC[C@H]1C(=O)N3)NC(=O)[C@H](CO)NC(=O)[C@H](CC(C)C)NC(=O)[C@H](Cc1c[nH]cn1)NC(=O)[C@H](CCC(=O)O)NC2=O [ω-Avsp1a, ω-theraphotoxin-Avsp1a] (H-GDCHKFLGWCRGEPDPCCEHLSCSRKHGWCVWDWTV-NH2; disulfide 3-18, 10-23, 17-30) | > 25 | 25 | 31 | 90 | 90 | 5.06 ± 0.16 | 90 | 90 | 4.32 ± 1.21 | limited solubility |  |  |
| NS(=O)(=O)Cc1noc2ccccc12 [zonisamide] |  |  |  |  |  |  |  |  |  |  | not subtype-specific | not effective in all patients |
| CCC1(C)CC(=O)NC1=O (centres unmarked) [ethosuximide] |  |  |  |  |  |  |  |  |  |  | not subtype-specific | not effective in all patients |
